Source: ChEMBL document CHEMBL1140660, “Synthesis and structure-activity relationship of a novel, non-hydroxamate series of TNF-alpha converting enzyme inhibitors” (Bioorg Med Chem Lett, 2007)

What was measured:
[1] = target: Macrophage metalloelastase (Homo sapiens, UniProt P39900); test: Inhibition of MMP12
[2] = target: Disintegrin and metalloproteinase domain-containing protein 17 (Sus scrofa, UniProt O77636); test: Inhibition of porcine TACE
[3] = target: 72 kDa type IV collagenase (Homo sapiens, UniProt P08253); test: Inhibition of MMP2
72 kDa type IV collagenase, sequence (P08253 whole entry): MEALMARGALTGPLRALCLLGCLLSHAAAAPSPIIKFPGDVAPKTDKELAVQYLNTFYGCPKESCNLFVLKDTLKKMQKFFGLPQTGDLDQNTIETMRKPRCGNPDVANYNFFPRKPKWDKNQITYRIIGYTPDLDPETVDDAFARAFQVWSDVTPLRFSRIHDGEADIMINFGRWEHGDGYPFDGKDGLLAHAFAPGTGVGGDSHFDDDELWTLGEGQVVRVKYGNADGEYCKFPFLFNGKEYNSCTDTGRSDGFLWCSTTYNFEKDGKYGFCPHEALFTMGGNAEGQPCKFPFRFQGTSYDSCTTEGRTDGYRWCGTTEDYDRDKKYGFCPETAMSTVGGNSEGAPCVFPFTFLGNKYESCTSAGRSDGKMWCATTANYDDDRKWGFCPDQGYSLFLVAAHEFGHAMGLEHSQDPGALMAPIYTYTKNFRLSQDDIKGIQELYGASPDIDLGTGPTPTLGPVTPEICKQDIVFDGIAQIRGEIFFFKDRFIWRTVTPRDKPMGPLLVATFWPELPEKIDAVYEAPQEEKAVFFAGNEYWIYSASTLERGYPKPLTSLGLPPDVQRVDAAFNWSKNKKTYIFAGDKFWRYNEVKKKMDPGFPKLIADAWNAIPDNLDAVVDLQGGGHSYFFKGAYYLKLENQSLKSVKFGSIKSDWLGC

Matrilysin = target: T1, Matrilysin (Homo sapiens, UniProt P09237); test: Inhibition of MMP7
T1 sequence (P09237 whole entry): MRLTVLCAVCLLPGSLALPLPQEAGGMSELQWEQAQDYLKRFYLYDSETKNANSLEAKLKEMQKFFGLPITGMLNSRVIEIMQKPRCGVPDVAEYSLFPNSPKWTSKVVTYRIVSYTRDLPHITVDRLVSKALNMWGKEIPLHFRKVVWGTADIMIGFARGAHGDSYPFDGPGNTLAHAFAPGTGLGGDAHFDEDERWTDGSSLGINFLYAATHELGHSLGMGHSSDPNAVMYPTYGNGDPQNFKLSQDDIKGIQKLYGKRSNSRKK

Collagenase 3 = Collagenase 3 (Homo sapiens, UniProt P45452); test: Inhibition of MMP13
Stromelysin-1 = Stromelysin-1 (Homo sapiens, UniProt P08254); test: Inhibition of MMP3
Stromelysin-1, sequence (P08254 whole entry): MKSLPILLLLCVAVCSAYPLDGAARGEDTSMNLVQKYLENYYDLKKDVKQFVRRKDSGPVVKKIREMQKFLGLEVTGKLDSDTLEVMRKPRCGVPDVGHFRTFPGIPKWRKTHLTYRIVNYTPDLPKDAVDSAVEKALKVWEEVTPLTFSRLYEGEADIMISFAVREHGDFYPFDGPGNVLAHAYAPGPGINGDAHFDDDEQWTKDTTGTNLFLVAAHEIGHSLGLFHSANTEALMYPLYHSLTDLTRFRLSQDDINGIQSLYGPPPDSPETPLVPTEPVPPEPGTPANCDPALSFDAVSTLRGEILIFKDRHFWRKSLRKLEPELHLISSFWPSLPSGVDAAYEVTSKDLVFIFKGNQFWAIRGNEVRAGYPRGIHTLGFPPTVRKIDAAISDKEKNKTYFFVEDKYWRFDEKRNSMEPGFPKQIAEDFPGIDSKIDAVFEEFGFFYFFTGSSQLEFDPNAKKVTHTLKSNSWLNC

Disintegrin and metalloproteinase domain-containing protein 17, sequence (O77636 whole entry, the tested form may be a part): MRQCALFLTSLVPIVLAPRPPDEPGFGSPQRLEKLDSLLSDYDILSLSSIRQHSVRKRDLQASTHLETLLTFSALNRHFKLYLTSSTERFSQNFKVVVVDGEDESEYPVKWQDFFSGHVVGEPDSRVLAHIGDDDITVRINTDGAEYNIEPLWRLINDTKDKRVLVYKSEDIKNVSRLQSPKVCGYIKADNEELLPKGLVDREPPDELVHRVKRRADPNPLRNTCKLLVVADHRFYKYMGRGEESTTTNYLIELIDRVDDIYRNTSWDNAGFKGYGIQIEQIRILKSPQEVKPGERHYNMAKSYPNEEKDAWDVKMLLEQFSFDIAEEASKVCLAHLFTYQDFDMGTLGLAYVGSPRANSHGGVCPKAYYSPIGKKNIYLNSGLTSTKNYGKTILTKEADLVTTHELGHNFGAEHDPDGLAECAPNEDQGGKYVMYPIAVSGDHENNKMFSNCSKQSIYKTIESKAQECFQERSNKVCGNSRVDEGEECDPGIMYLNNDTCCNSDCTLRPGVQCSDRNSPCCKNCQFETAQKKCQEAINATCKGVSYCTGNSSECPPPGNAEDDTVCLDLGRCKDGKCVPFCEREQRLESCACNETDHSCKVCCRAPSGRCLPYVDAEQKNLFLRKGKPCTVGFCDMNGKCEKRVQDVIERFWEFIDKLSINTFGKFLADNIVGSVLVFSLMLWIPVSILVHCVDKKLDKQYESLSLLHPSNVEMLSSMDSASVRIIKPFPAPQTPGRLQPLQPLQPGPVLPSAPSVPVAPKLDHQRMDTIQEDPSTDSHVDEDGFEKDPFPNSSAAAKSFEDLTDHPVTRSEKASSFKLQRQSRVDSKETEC
Macrophage metalloelastase, sequence (P39900 whole entry, the tested form may be a part): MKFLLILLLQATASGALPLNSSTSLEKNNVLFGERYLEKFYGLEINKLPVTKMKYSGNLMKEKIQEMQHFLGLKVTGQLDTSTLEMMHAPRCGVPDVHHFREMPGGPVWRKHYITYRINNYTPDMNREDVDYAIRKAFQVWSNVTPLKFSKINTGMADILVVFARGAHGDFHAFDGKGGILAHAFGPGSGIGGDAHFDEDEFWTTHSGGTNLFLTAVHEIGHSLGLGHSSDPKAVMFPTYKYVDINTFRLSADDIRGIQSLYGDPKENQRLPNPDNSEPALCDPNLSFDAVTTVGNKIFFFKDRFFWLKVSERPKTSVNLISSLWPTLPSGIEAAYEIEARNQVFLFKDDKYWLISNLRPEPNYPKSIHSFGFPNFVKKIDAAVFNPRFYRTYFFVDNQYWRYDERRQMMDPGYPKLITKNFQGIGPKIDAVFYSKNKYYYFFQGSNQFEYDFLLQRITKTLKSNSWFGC

Ki [1] [µM]	IC50 [2] [µM]	Ki [3] [µM]	Ki (Matrilysin) [µM]	Ki (Collagenase 3) [µM]	Ki (Stromelysin-1) [µM]	SMILES
> 6.02	0.0025	> 3.33	> 6.37	3.14	> 4.5	CC(=O)N1CC[C@H](c2n[nH]c(=S)[nH]2)[C@H](NC(=O)c2ccc(OCc3cc(C)nc4ccccc34)cc2)C1 (relative stereo)
> 6.02	0.041	> 3.33	> 6.37	> 5.03	> 4.5	Cc1cc(COc2ccc(C(=O)N[C@@H]3CCC[C@@H]3c3n[nH]c(=S)[nH]3)cc2)c2ccccc2n1 (relative stereo)
> 6.02	0.015	> 3.33	> 6.37	> 5.03	> 4.5	CCCN1CC[C@H](c2n[nH]c(=S)[nH]2)[C@H](NC(=O)c2ccc(OCc3cc(C)nc4ccccc34)cc2)C1 (relative stereo)
> 6.02	0.092	> 3.33	> 6.37	> 5.03	> 4.5	Cc1cc(COc2ccc(C(=O)N[C@@H]3CNC[C@@H]3c3n[nH]c(=S)[nH]3)cc2)c2ccccc2n1 (relative stereo)
> 6.02	0.21	> 3.33	> 6.37	> 5.03	> 4.5	Cc1cc(COc2ccc(C(=O)NCCc3n[nH]c(=S)[nH]3)cc2)c2ccccc2n1
> 6.02	> 1	> 3.33	> 6.37	> 5.03	> 4.5	Cc1cc(COc2ccc(C(=O)NCc3n[nH]c(=S)[nH]3)cc2)c2ccccc2n1
> 6.02	0.028	> 3.33	> 6.37	> 5.03	> 4.5	Cc1cc(COc2ccc(C(=O)N[C@@H]3CN(S(C)(=O)=O)CC[C@@H]3c3n[nH]c(=S)[nH]3)cc2)c2ccccc2n1 (relative stereo)
> 6.02	0.075	> 3.33	> 6.37	> 5.03	> 4.5	Cc1cc(COc2ccc(C(=O)N[C@@H]3CN(C(=O)OC(C)(C)C)CC[C@@H]3c3n[nH]c(=S)[nH]3)cc2)c2ccccc2n1 (relative stereo)
> 6.02	0.0099	> 3.33	> 6.37	2.46	> 4.5	CCCN1C[C@H](c2n[nH]c(=S)[nH]2)[C@H](NC(=O)c2ccc(OCc3cc(C)nc4ccccc34)cc2)C1 (relative stereo)
> 6.02	0.031	> 3.33	> 6.37	> 5.03	> 4.5	Cc1cc(COc2ccc(C(=O)N[C@@H]3CN(C(C)C)CC[C@@H]3c3n[nH]c(=S)[nH]3)cc2)c2ccccc2n1 (relative stereo)
> 6.02	> 1	> 3.33	> 6.37	> 5.03	> 4.5	Cc1cc(COc2ccc([C@]3(N)CCN([C@H](CC(C)C)c4n[nH]c(=S)[nH]4)C3=O)cc2)c2ccccc2n1
> 6.02	0.073	> 3.33	> 6.37	> 5.03	> 4.5	C#CCN1CC[C@H](c2n[nH]c(=S)[nH]2)[C@H](NC(=O)c2ccc(OCc3cc(C)nc4ccccc34)cc2)C1 (relative stereo)
> 6.02	0.0094	> 3.33	> 6.37	> 5.03	> 4.5	Cc1cc(COc2ccc(C(=O)N[C@@H]3CNCC[C@@H]3c3n[nH]c(=S)[nH]3)cc2)c2ccccc2n1 (relative stereo)
0.958	0.016	> 3.33	5.37	> 5.03	> 4.5	Cc1cc(COc2ccc(C(=O)N[C@@H]3CN(C)CC[C@@H]3c3n[nH]c(=S)[nH]3)cc2)c2ccccc2n1 (relative stereo)
3.56	0.014	> 3.33	> 6.37	> 5.03	> 4.5	Cc1cc(COc2ccc(C(=O)N[C@@H]3CN(C(=O)OC(C)(C)C)C[C@@H]3c3n[nH]c(=S)[nH]3)cc2)c2ccccc2n1 (relative stereo)

SMILES	Ki [1] [µM]	IC50 [2] [µM]	Ki [3] [µM]	Ki (Matrilysin) [µM]	Ki (Collagenase 3) [µM]	Ki (Stromelysin-1) [µM]
Cc1cc(COc2ccc(C(=O)NC3(Cc4n[nH]c(=S)[nH]4)CCN(C(=O)OC(C)(C)C)CC3)cc2)c2ccccc2n1	> 6.02	0.036	> 3.33	> 6.37	> 5.03	> 4.5
Cc1cc(COc2ccc(C(=O)NC3(Cc4n[nH]c(=S)[nH]4)CCOCC3)cc2)c2ccccc2n1	0.223	0.024	1.6	0.635	0.753	2.1
Cc1cc(COc2ccc(C(=O)N[C@@H]3CCNC[C@@H]3c3n[nH]c(=S)[nH]3)cc2)c2ccccc2n1 (relative stereo)	> 6.02	0.043	> 3.33	> 6.37	> 5.03	> 4.5
Cc1cc(COc2ccc(C(=O)NC(C)(C)Cc3n[nH]c(=S)[nH]3)cc2)c2ccccc2n1	> 6.02	0.055	> 3.33	> 6.37	> 5.03	> 4.5
Cc1cc(COc2ccc(C(=O)N[C@@H]3CCOC[C@@H]3c3n[nH]c(=S)[nH]3)cc2)c2ccccc2n1 (relative stereo)	> 6.02	0.0081	> 3.33	> 6.37	> 5.03	> 4.5
O=C(NCCCc1n[nH]c(=S)[nH]1)c1ccc(OCc2ccnc3ccccc23)cc1	> 6.02	0.294	> 3.33	> 6.37	> 5.03	> 4.5
CC(=O)N1C[C@H](c2n[nH]c(=S)[nH]2)[C@H](NC(=O)c2ccc(OCc3cc(C)nc4ccccc34)cc2)C1 (relative stereo)	> 6.02	0.0015	> 3.33	> 6.37	> 5.03	> 4.5
